Reference: patent US12555809B2, “Additives for fluorenone/fluorenol based aqueous redox flow batteries” (Battelle Memorial Institute, priority 2021, dated 2026)

Legend:
[1] = cited from earlier work; for H—B pKa: conjugate acid of B^-
[2] = Solubility measurement (saturated solution concentration by NMR); assay type: physicochemical; conditions: with less than 0.1 M β-CD added
Experimental: A general procedure was applied following below steps. First a supernatant was prepared by mixing solute and solvent with heating, stirring, and centrifugation. The resulting cooled mixture was filtered through 0.2 μm PP membrane filter. The saturated solution concentration was determined by NMR. NMR sample was prepared with mixing 100 μL of saturated solution, 50 μL of internal standard solution (1 M sodium methane sulfonate) and 950 μL D2O.

[3] = PFG NMR diffusion coefficients (1H, 23Na); assay type: physicochemical; conditions: for D(Na^+): 23Na PFG NMR at 25° C.
Experimental: Nuclear magnetic resonance spectroscopy: NMR spectra were either collected on a 500 MHz Oxford NMR spectrometer at 25° C. (the system consists of an Oxford AS500 magnet connected to an Agilent Technologies console), or collected on a 400 MHz NMR spectrometer (Bruker 400 MHz Avance III NMR with NanoBay console, equipped with a SampleCase™ autosampler using IconNMR automation. Probe: BBFO 5 mm SmartProbe sensor). Chemical shifts were reported in ppm with the solvent resonance as the internal standard (DMSO, δ=2.50; D2O, δ=4.70; CDCl3, δ=7.26).

[4] = Small-angle X-ray scattering (SAXS) cluster size; assay type: physicochemical; conditions: for Diameter: SAXS
Text: Small-angle X-ray scattering: Synchrotron SAXS technique is a powerful technique to measure the size of dissolved molecules, clusters, and suspended particles. SAXS resolves the particle size and shape over a wide range of sizes from several Å to hundreds of nm. Considering the small sizes and low electron contrast of β-CD, FL and FLOH relative to solution, there was a focus on collecting data from a scattering vector, q, of 0.05 to 2 Å-1. Small-angle X-ray scattering (SAXS) data was acquired at beamline 12-ID-B of the APS. A constant incident photon energy of 13.3 keV (λ=0.9322 Å) was used to measure samples in transmission through a 2-mm ID silica capillary (Charles Supper SiO2 capillaries, 10 μm wall thickness). Sample-to-detector distance was calibrated using a silver behenate standard. 2D images were recorded using a Pilatus 2M detector (Dectris; pixel size 172×172 μm^2) for five frames at a 1 s exposure time each. Artifacts from static noise were subtracted using detector dark images, which were acquired every ten frames. Solution blanks were acquired identical to the suspension samples and subtracted using a scaling factor of 1. The RAW program from the BioXTAS package was used, as well as SasView and Irena, to integrate the data, average and merge scans, perform background subtractions, and to calculate pair distance distribution functions (PDDF).

[5] = Rotating disk electrode (RDE) study; assay type: physicochemical; conditions: 27S4CFL (5 mM) in 0.1 M β-CD/1 M NaOH
Experimental: Rotating disk electrode (RDE) measurements (Feng et al., Science 2021, 372:836) were performed using a three-electrode configuration consisting of a glassy carbon working electrode (3 mm diameter), a carbon rod counter electrode and an Ag/AgCl reference electrode. The electrolytes of 5 mM redox-active materials in 1.0 M NaOH were used. Data were collected using a CHI potentiostat at scan rates of 5 mV/s in the potential range of −1.55V˜−0.5V vs Ag/AgCl. The rotation rates were at 300, 600, 900, 1200, 1500, 1800, 2100 and 2400 rpm. […] The Koutecky-Levich plots at different overpotentials were extrapolated to get the kinetic current ik according to the Koutecky-Levich equation:
[formula] The exchange current i0 can be obtained by fitting ik to the Tafel plot at the overpotential of zero, from which the reaction rate constant (k0) was determined according to Butler-Volmer equation: i0=nFACk0 Flow Battery Tests

[6] = pKa of additive / proton acceptor (H—B) and deprotonation of β-CD in alkaline solution; assay type: physicochemical; conditions: 0.1 M β-CD added to 1 M NaOH
Text: β-(Cyclodextrin)CD was selected as model compound. Not only benefiting from the cavity containing poly-hydroxyl structure, but it also has a pKa at around 13.5, which is similar to the pKa of functionalized fluorenol, rendering a potentially strong H-bonding structure. Based on past studies (Gaidamauskas et al., Carbohydrate Research 2009, 344:250-254) and measurement of β-CD behavior in alkaline solution, this supermolecule experiences two-fold of deprotonation in 1 M NaOH. […] From a battery operation point, β-CD is notable for its redox-inert character and large molecular size, which leaves no concern of crossover and loss of catalyst. From a practical application point, the low-cost and non-toxic merit warrants feasible implementation.

[7] = Battery current response test at controlled voltage; conditions: fully charged electrolyte, 0.9V controlled voltage discharge
Experimental: The battery of FIG. 13 was constructed similar to above described procedure, except that two consecutive cell stacks were employed (electrolyte flow through the two cells consecutively), one for charging and discharging, one for OCV monitoring. The battery in FIG. 18 was constructed using one cell stack, with additional pump and tubing system circulating ˜3 mL electrolyte through EPR detecting tube at 100 rpm rate. Anolyte was comprised of 12 mL 0.1 M 274FL/1 M NaOH with specified additive at 0.086 M. Catholyte was comprised of 500 mL 0.1 M ferrocyanide/0.05 M ferricyanide/1 M NaOH. Electrolyte was charged until desired SOC reached. Then the discharge current response was measured at controlled voltage of 0.9V. Each measurement was repeated 5 cycles (FIG. 13) and experiments were repeated two times in FIG. 18.

[8] = H-cell oxidation rate measurement (chronocoulometry)
Experimental: The measurement was conducted with H-cell equipped with Hg/HgO as reference electrode and Glassy carbon electrode as working electrode (0.0707 cm^2). Carbon rod was used as counter electrode. Stir bar was equipped to facilitate mass transfer, so it is not considered as a limiting factor in the measurement of oxidation process. Chronocoulometry method was applied at specified potential for 120 s with IR compensation (CI mode on Gamry) and 1.5 s per data point. Nafion® 212 (soaked in 1 M NaOH at room temperature) was used as separator. Each data point was repeated three times. The electrolyte solution was prepared using the battery charging to specified SOC. The battery was constructed with 8 mL of 0.3 M 274FL/1 eqNaOH/1 M NaOH and 30 mL of 0.3 M potassium ferrocyanide/0.3 M potassium ferricyanide/1 M NaOH. After charged to specified SOC, the anolyte solution was diluted with 1 M NaOH to result a 15 mM active material solution. The catholyte was diluted with 1 M NaOH to result an 8.75 mM potassium ferrocyanide/28.75 mM potassium ferricyanide solution. The solution used for H-cell measurement in each compartment was 5 mL, with addition of specified amount of additive. To prepare deuterated fluorenol, the cell was constructed using NaOD/D2O for both anolyte and catholyte.
Due to well stirred solution and only 120 s measurement with small electrode area, mass transfer and SOC change influence can be considered as neglectable. Thus, a linear relationship was obtained (A condition where neglectable oxidizable material concentration change during testing period). The slope represents an oxidation rate (C/s, average current, unit A) for the solution oxidizable species during that testing period.
A heterogeneous reaction oxidation rate constant (cm/s) at a specified overpotential was calculated based on a pseudo first order reaction model (Hammerich et al., Organic electrochemistry:revised and expanded 2015, CRC Press; Markle et al., Science Advances 2018, 4: eaat5776):
[formula] here “i” unit is A(C/s), A is 0.0707 cm^2. […]

[9] = EPR of comproportionation mixture (FLOH + FL); conditions: 0.001 M FLOH and 0.001 M FL 1:1, 0.001 M β-CD, 20 min after mixing
Experimental: Electron paramagnetic resonance spectroscopy: EPR measurements were performed on a Bruker ELEXSYS E580 spectrometer at 298 K. The electrolyte solution sample was pulled into a glass capillary (VitroTubes™, ID 0.8 mm and OD 1 mm) using a Hamilton syringe connected through nanotight fittings from Valco Instruments Co. Inc. The capillary was sealed using Critoseal™ Leica Microsystems capillary tube sealant on both ends and was further placed inside a 4 mm EPR tube with the open end sealed inside a glove box filled with nitrogen. All samples were prepared inside the glove box immediately before EPR experiments to minimize the influence of air and moisture. The typical settings for the spectra were microwave frequency=9.324 GHz, sweep time=41.94 s, time constant=5.12 ms, power=0.02 mW, field modulation amplitude=0.05 G, and sweep width=24 G for dilute solutions in order to capture the detailed hyperfine structures but the sweep width was increased to 50 G for relatively concentrated solutions to incorporate their broader line widths. Absolute spin concentrations of the samples were determined by calibration curves of the spin standard TEMPO (2,2,6,6-tetramethyl-1-piperidinyloxyl) with concentrations varying from 0.01 mM to 100 mM, and another spin standard 4-Hydroxy-TEMPO with concentrations varying from 0.1 M to 1.0 M.

[10] = ratio of diffusion coefficients

Compound	H—B pKa [1]	D(FLOH or FL) ([3]; 1H PFG NMR at 25° C.)	D(H2O) ([3]; 1H PFG NMR at 25° C.)	D(Na^+) [3]	D(FLOH or FL)/D(H2O) [3, 10]	D(Na^+)/D(H2O) [3, 10]	Diameter [4]	also measured
Oc1ccc(O)cc1	9.7	–	–	–	–	–	–	–
O=C(O)c1cccc2c1-c1ccc(S(=O)(=O)[O-])cc1C2=O.[K+] [4C7SFL, 4-carboxylate-7-sulfonate fluorenone/fluorenol]	–	–	–	–	–	–	–	solubility ([2]; aqueous with cosolvent or surfactant or cyclodextrin, thermodynamic from solid, read-out: measured solubility): ~1900 mM; solubility increase compared with solubility without β-CD [2]: ~30%; volumetric capacity corresponding to solubility [2]: 101.8 Ah/L
O=C(O)c1cc(S(=O)(=O)O)cc2c1-c1ccc(S(=O)(=O)O)cc1C2=O [27S4CFL, 2,7-sulfonate-4-carboxylate fluorenone]	–	1.92 ×10^−10 m^2/s	12.1 ×10^−10 m^2/s	7.60 ×10^−10 m^2/s	0.16	0.63	16.48 ± 0.21 Å Å	calculated diffusion coefficient [5]: 7.56×10^−6 cm^2/s; calculated kinetic reduction rate constant for the first electron [5]: 0.00351 cm/s
OCC(F)(F)F [CF3CH2O]	11.4-12.4	–	–	–	–	–	–	–
O=C(O)c1cc(S(=O)(=O)O)cc2c1-c1ccc(S(=O)(=O)O)cc1C2O (centres unmarked) [FLOH, 2,7-sulfonate-4-carboxylate fluorenol]	–	2.45 ×10^−10 m^2/s	13.6 ×10^−10 m^2/s	6.72 ×10^−10 m^2/s	0.18	0.49	12.32 ± 1.84 Å Å	D(FLOH - H6) ([3]; 1H PFG NMR at 25° C.): 2.43 ×10^−10 m^2/s
OC[C@H]1O[C@@H]2O[C@H]3[C@H](O)[C@@H](O)[C@@H](O[C@H]4[C@H](O)[C@@H](O)[C@@H](O[C@H]5[C@H](O)[C@@H](O)[C@@H](O[C@H]6[C@H](O)[C@@H](O)[C@@H](O[C@H]7[C@H](O)[C@@H](O)[C@@H](O[C@H]8[C@H](O)[C@@H](O)[C@@H](O[C@H]1[C@H](O)[C@H]2O)O[C@@H]8CO)O[C@@H]7CO)O[C@@H]6CO)O[C@@H]5CO)O[C@@H]4CO)O[C@@H]3CO [β-CD, β-cyclodextrin]	–	–	13.1 ×10^−10 m^2/s	8.12 ×10^−10 m^2/s	–	0.62	11.76 ± 3.94 Å Å	hydroxide consumption corresponding to pH decrease [6]: 0.184 M; D(β-CD) ([3]; 1H PFG NMR at 25° C.): 1.57 ×10^−10 m^2/s; D(β-CD)/D(H2O) [3, 10]: 0.12; height of the cup ([4]; SAXS RDFs): ~4 Å; width of the cup ([4]; SAXS RDFs): ~12 Å; peak current density relative to blank [7]: 1.6 times; increment of fluorenol oxidation ([8]; H-cell, −0.65V vs Hg/HgO): 1.6 times; KIE value ([8]; applied potential of −0.65V vs Hg/HgO): 2.42; deuterated fluorenol oxidation rate enhancement ([8]; deuterated fluorenol): 1.4 times; reduction of radical concentration estimated from EPR peak intensity [9]: 60%; pKa [1]: around 13.5
